# Reference: the supplement of paper PMC10307832
# Columns and labels:
# Experiment in all cases: relative viability (nuclei count vs DMSO), 5 days (fraction); higher = more cells survive
# IPA-3 + Vorinostat = compound: C1=CC=C2C(=C1)C=CC(=C2SSC3=C(C=CC4=CC=CC=C43)O)O [IPA-3] + O=C(CCCCCCC(=O)Nc1ccccc1)NO [Vorinostat] (partner 1 µM)
# Outline: (§1)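 After 5 days of treatment, lung cancer cells in 1536-well plates were fixed and stained in a single step (final 0.05% Triton X-100, 1% formaldehyde, 1 ug/ml Hoechst) and their nuclei counted on 4× images. Treatment had been applied by pin tool the day after seeding as one drug alone or as a fixed anchor-drug dose with five library-drug doses (not always all listed) in √10 steps. Relative viability is the nuclei count of treated wells divided by that of vehicle wells, and values are medians of duplicate plates.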
# Doramapimod + Vorinostat = compound: Cc1ccc(-n2nc(C(C)(C)C)cc2NC(=O)Nc2ccc(OCCN3CCOCC3)c3ccccc23)cc1 [Doramapimod] + O=C(CCCCCCC(=O)Nc1ccccc1)NO [Vorinostat] (partner 1 µM)
# Outline: as §1
# IPA-3 + Navitoclax = compound: C1=CC=C2C(=C1)C=CC(=C2SSC3=C(C=CC4=CC=CC=C43)O)O [IPA-3] + CC1(C)CCC(c2ccc(Cl)cc2)=C(CN2CCN(c3ccc(C(=O)NS(=O)(=O)c4ccc(N[C@H](CCN5CCOCC5)CSc5ccccc5)c(S(=O)(=O)C(F)(F)F)c4)cc3)CC2)C1 [Navitoclax] (partner 0.5 µM)
# Outline: as §1
Cell Line,relative viability (IPA-3 + Vorinostat; first compound 0.2 µM),relative viability (IPA-3 + Vorinostat; first compound 0.6325 µM),relative viability (IPA-3 + Vorinostat; first compound 2 µM),relative viability (IPA-3 + Vorinostat; first compound 6.325 µM),relative viability (IPA-3 + Vorinostat; first compound 20 µM),relative viability (Doramapimod + Vorinostat; first compound 0.02 µM),relative viability (Doramapimod + Vorinostat; first compound 0.06325 µM),relative viability (Doramapimod + Vorinostat; first compound 0.2 µM),relative viability (Doramapimod + Vorinostat; first compound 0.6325 µM),relative viability (Doramapimod + Vorinostat; first compound 2 µM),relative viability (IPA-3 + Navitoclax; first compound 0.2 µM),relative viability (IPA-3 + Navitoclax; first compound 0.6325 µM),relative viability (IPA-3 + Navitoclax; first compound 2 µM),relative viability (IPA-3 + Navitoclax; first compound 6.325 µM),relative viability (IPA-3 + Navitoclax; first compound 20 µM)
LCLC-97TM1,1.11,0.875,0.724,0.575,1.12,0.73,0.635,0.747,0.615,0.56,0.599,0.4,0.36,0.359,0.451
LCLC-103H,0.849,0.807,0.805,0.865,0.867,0.788,0.799,0.875,0.845,0.751,,,,,
LK-2,0.321,0.321,0.429,0.553,0.506,0.283,0.296,0.266,0.242,0.29,0.983,0.881,0.81,1.05,1.17
LOU-NH91,0.946,0.804,0.902,0.87,1.08,0.966,0.944,0.945,0.847,0.632,0.705,0.67,0.744,0.67,0.868
LU99A,0.642,0.4,0.459,0.461,0.379,0.443,0.455,0.578,0.53,0.474,0.866,0.86,0.819,0.781,0.889
LXF-289,0.825,0.862,0.692,0.827,0.898,0.811,0.775,0.747,0.723,0.635,0.992,0.911,1.01,0.957,1.04
NCI-H23,0.735,0.616,0.595,0.611,0.501,0.633,0.563,0.554,0.656,0.473,1.14,0.709,0.858,0.991,1.1
NCI-H322M,0.92,0.948,1.02,1.07,1.11,0.889,0.943,0.979,0.998,0.94,1.29,1.12,1.17,1.25,1.29
NCI-H358,0.785,0.618,0.783,0.619,0.803,0.69,0.669,0.66,0.762,0.594,,,,,
NCI-H441,0.881,0.637,0.748,0.731,0.948,0.72,0.851,0.591,0.798,0.644,0.814,,0.405,0.216,0.771
NCI-H460,0.94,0.665,0.729,0.626,0.504,0.773,0.817,0.76,0.794,0.551,1.45,0.968,1.45,1.04,1.09
NCI-H520,0.713,0.849,,0.579,0.796,0.672,0.755,0.653,0.731,0.609,1.16,0.971,0.863,1.02,1.12
NCI-H522,0.879,0.897,0.854,0.894,1.06,0.963,1.05,0.871,0.845,0.874,,,,,
NCI-H596,0.722,0.772,0.578,0.694,0.656,0.643,0.672,0.616,0.605,0.561,0.969,1.08,0.985,0.894,1.16
NCI-H647,0.628,0.376,0.581,0.544,0.151,0.336,0.621,0.429,0.548,0.381,1.54,1.02,1.15,0.589,0.554
NCI-H650,0.465,0.518,0.361,0.486,0.507,0.534,0.568,0.423,0.414,0.456,,,,,
NCI-H661,0.796,0.764,0.865,0.732,0.778,0.815,0.74,0.797,0.788,0.767,,,,,
NCI-H727,1.25,1.01,1.27,1.07,1.2,1.18,1.18,1.14,1.05,1.1,0.447,0.377,0.442,0.614,0.556
NCI-H838,0.776,0.697,0.75,0.706,0.794,0.749,0.749,0.766,0.808,0.726,1.35,1.07,1.24,1.1,1.25
NCI-H1299,,,,,,,,,,,1.08,1.08,1.03,1.01,1.03
NCI-H1355,0.69,0.655,0.595,0.617,0.657,0.621,0.577,0.64,0.704,0.566,1.08,0.867,0.999,1.03,1.09
NCI-H1395,0.679,0.754,0.588,0.635,0.747,0.722,0.943,0.975,0.67,0.571,1.13,1.05,1.13,1.16,1.57
NCI-H1648,0.876,0.484,0.589,0.34,0.399,0.348,0.405,0.52,0.709,0.224,,,,,
NCI-H1703,,,,,,,,,,,1.71,0.991,1.05,1.13,0.765
NCI-H1792,,,,,,,,,,,0.939,0.665,0.55,0.675,0.825
NCI-H2342,0.837,1.03,0.851,0.91,0.89,0.761,0.747,0.806,0.849,0.829,,,,,
SW 900,0.609,0.531,0.641,0.654,0.481,0.571,0.514,0.546,0.584,0.436,,,,,
